Converted amounts (≈) assume the structure as drawn. The source made the active and inactive calls. The calls are words filed in the database; no cut-off is given here.
Tests used:
Staphylococcus aureus [1] = assay: Bactericidal activity against methicillin resistant Staphylococcus aureus ATCC 43300 at 8 times of MIC measured a 6 to 24 hrs by time-kill kinetic assay; assay type: functional, organism-based; settings: time 6-24 hrs
Staphylococcus aureus [2] = assay: Drug resistance, ratio of MIC for methicillin-resistant Staphylococcus aureus ATCC 43300 measured after 10 passages to MIC for methicillin-resistant Staphylococcus aureus during first exposure; assay type: functional
Staphylococcus aureus [3] = assay: Antibacterial activity against methicillin resistant Staphylococcus aureus ATCC 43300 assessed as post antibiotic effect at 8 times of MIC incubated for 1 hrs and measured after 8 hrs; assay type: functional; settings: time 9 hrs
Staphylococcus aureus [4] = assay: Drug resistance, ratio of MIC for methicillin-resistant Staphylococcus aureus ATCC 43300 measured after 8 passages to MIC for methicillin-resistant Staphylococcus aureus during first exposure; assay type: functional
Staphylococcus aureus [5] = assay: Antibacterial activity against methicillin resistant Staphylococcus aureus ATCC 43300 assessed as assessed as bacterial killing incubated for 24 hrs by time-kill kinetics assay; assay type: functional, organism-based
Acinetobacter baumannii = assay: Antibacterial activity against Acinetobacter baumannii ATCC 17978 assessed as inhibition of bacterial growth by broth microdilution method; assay type: functional
Staphylococcus aureus [6] = assay: Antibacterial against methicillin resistant Staphylococcus aureus ATCC 43300 assessed as inhibition of bacterial growth by broth microdilution method; assay type: functional; settings: time 24 hrs
Pseudomonas aeruginosa = assay: Antibacterial activity against Pseudomonas aeruginosa ATCC 27853 assessed as inhibition of bacterial growth by broth microdilution metho; assay type: functional
DNA gyrase = DNA gyrase (Escherichia coli, UniProt P0AES4+P0AES6); assay: Inhibition of Escherichia coli DNA gyrase by supercoiling plate assay; assay type: protein-complex assay
Enterobacter cloacae = assay: Antibacterial activity against Enterobacter cloacae subsp. cloacae ATCC 13047 assessed as inhibition of bacterial growth by broth microdilution method; assay type: functional
Klebsiella pneumoniae = assay: Antibacterial activity against Klebsiella pneumoniae ATCC 10031 assessed as inhibition of bacterial growth by broth microdilution method; assay type: functional
Enterococcus faecium = assay: Antibacterial activity against vancomycin-resistant Enterococcus faecium ATCC 700221 assessed as inhibition of bacterial growth by broth microdilution method; assay type: functional
Staphylococcus aureus [7] = assay: Antibacterial against vancomycin-intermediate Staphylococcus aureus ATCC 700699 assessed as inhibition of bacterial growth by broth dilution method; assay type: functional
MCF7 = assay: Cytotoxicity against human MCF7 cells assessed as cell viability at 50 uM incubated for 72 hrs by CellTiter 96 aqueous one solution reagent based MTS assay relative to control; assay type: functional; settings: read-out: Activity
[8] = Inhibition of Escherichia coli DNA topoisomerase-IV relaxation plate assay
Staphylococcus aureus [9] = assay: Bactericidal activity against Staphylococcus aureus ATCC 43300 at 8 times MIC measured after 8 hrs by time kill assay; assay type: functional, organism-based
Enterococcus faecalis = assay: Antibacterial activity against Enterococcus faecalis ATCC 29212 assessed as inhibition of bacterial growth by broth microdilution method; assay type: functional
[10] = target: T1, DNA topoisomerase 2-alpha (Homo sapiens, UniProt P11388); assay: (§1) Inhibition of human DNA topoisomerase 2-alpha using linear pBR322 as substrate assessed as conversion of NADH to NAD+ by measuring residual activity at 100 uM preincubated for 10 to 15 mins in presence of pyruvate kinase/lactate dehydrogenase mix followed by ATP addition and measured after 30 mins by ATPase assay relative to control; settings: time 40-55 min
Escherichia coli [11] = assay: Antibacterial activity against Escherichia coli ATCC 25922 assessed as inhibition of bacterial growth by broth microdilution method; assay type: functional
Staphylococcus aureus [12] = assay: Antibacterial activity against Staphylococcus aureus ATCC 29213 assessed as inhibition of bacterial growth by broth microdilution method; assay type: functional
[13] = target: DNA gyrase (Staphylococcus aureus) (UniProt P0A0K8+P20831); assay: Inhibition of Staphylococcus aureus DNA gyrase assessed as residual activity at 0.1 uM by supercoiling plate assay relative to control; assay type: protein-complex assay
Escherichia coli [14] = assay: Inhibition of Escherichia coli DNA topoisomerase-IV assessed as residual activity at 10 uM by relaxation plate assay relative to control
[15] = target: DNA gyrase (Escherichia coli) (UniProt P0AES6+P0AES4); assay: Inhibition of Escherichia coli DNA gyrase assessed as residual activity at 1 uM by supercoiling plate assay relative to control; assay type: protein-complex assay
[16] = target: T1, DNA topoisomerase 2-alpha; assay: as §1, with “40” for “100”; settings: time 40-55 min
[17] = target: T1, DNA topoisomerase 2-alpha; assay: as §1, with “10” for “100”; settings: time 40-55 min

T1 sequence (P11388 whole entry): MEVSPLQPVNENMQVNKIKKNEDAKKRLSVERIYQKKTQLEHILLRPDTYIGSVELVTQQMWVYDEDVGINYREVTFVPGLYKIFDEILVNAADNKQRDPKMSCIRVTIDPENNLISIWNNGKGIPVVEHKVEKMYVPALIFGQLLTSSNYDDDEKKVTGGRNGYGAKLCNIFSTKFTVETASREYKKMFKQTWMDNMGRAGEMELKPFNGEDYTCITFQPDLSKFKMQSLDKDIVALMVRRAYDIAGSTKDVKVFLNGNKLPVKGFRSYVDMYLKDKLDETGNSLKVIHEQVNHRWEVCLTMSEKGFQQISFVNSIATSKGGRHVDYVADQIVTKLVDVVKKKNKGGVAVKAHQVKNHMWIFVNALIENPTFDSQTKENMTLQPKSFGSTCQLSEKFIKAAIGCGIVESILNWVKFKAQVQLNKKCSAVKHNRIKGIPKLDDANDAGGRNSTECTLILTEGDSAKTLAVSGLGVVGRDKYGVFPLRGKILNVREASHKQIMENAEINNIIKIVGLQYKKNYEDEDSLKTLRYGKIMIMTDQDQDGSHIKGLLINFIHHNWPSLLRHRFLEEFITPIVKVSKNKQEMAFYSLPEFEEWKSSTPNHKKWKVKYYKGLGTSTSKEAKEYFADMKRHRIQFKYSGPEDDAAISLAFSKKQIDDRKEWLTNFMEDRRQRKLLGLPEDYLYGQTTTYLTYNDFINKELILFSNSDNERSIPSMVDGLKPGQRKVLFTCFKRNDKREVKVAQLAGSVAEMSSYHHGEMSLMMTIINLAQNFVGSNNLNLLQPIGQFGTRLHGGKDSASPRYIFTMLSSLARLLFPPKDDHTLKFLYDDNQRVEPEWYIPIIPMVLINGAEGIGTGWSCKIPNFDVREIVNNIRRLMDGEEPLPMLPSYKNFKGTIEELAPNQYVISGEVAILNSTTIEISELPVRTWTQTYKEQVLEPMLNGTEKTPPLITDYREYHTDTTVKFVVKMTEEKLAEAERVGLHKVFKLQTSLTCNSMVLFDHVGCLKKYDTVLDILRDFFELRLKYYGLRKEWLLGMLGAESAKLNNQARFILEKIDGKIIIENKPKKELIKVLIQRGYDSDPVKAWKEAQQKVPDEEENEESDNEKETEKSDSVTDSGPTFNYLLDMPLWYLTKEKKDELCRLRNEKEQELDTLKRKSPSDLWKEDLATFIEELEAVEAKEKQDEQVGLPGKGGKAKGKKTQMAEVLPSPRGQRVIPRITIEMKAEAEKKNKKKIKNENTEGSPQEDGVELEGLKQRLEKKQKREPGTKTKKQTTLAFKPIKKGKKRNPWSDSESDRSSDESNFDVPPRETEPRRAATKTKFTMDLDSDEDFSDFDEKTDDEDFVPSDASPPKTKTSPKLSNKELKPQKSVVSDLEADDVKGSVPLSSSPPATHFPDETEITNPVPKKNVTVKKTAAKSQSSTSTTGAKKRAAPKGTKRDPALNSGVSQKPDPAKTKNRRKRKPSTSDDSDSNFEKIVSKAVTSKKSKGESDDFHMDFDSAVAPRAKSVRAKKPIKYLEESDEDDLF
DNA gyrase (Staphylococcus aureus), sequence (P0A0K8 2-644 limits assumed): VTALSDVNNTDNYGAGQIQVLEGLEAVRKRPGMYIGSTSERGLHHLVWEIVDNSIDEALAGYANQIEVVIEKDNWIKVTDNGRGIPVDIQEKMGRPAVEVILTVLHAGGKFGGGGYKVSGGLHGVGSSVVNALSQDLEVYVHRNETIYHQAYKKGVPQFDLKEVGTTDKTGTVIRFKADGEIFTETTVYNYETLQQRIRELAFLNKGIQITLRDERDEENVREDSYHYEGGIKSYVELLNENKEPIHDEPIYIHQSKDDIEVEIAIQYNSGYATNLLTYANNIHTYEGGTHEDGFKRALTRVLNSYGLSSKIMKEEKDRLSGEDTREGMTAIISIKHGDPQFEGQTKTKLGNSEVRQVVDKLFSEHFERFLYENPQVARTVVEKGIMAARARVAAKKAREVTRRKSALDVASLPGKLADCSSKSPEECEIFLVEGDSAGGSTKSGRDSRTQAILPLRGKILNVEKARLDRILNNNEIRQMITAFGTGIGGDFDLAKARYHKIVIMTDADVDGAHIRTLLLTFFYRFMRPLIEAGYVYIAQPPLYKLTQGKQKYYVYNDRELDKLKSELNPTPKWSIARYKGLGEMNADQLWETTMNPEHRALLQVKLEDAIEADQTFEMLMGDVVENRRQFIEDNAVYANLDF
DNA gyrase (Staphylococcus aureus), sequence (P20831 whole entry partner): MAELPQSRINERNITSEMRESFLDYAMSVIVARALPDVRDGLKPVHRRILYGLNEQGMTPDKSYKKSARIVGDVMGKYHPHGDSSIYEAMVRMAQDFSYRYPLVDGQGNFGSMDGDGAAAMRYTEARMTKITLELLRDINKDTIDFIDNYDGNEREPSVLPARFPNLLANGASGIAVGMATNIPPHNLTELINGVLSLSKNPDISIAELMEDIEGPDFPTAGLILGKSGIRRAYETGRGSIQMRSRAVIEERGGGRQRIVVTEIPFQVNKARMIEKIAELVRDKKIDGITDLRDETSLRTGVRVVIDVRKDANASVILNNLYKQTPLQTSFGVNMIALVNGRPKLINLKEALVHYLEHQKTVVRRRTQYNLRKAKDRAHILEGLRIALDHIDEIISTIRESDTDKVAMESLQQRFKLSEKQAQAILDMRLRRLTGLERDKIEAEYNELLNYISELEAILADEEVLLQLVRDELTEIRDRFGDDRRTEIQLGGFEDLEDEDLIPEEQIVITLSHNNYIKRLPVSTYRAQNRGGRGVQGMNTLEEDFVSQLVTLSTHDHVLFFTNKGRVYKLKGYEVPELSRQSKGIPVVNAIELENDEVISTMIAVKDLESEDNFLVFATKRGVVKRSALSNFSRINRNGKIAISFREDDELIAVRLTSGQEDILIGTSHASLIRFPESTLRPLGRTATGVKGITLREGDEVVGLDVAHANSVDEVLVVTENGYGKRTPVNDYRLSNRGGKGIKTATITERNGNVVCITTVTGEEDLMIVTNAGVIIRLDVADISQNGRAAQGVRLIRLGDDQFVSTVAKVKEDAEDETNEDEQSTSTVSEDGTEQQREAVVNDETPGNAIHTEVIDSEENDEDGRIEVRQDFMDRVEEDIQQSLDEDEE

| Structure (SMILES) | Ratio (Staphylococcus aureus [2]) | PAE (Staphylococcus aureus [3]) [h] | Ratio (Staphylococcus aureus [4]) | MIC (Staphylococcus aureus [6]) [µg/mL] | MIC (Pseudomonas aeruginosa) [µg/mL] | IC50 (DNA gyrase) [nM] | MIC (Enterococcus faecium) [µg/mL] | viability at 50 µM (MCF7) [%] | Activity [10] [%] | MIC (Escherichia coli [11]) [µg/mL] | MIC (Staphylococcus aureus [12]) [µg/mL] | Activity (Escherichia coli [14]) [%] | Activity [16] [%] | other results |
| --- | --- | --- | --- | --- | --- | --- | --- | --- | --- | --- | --- | --- | --- | --- |
| O=C(O)c1cn(C2CC2)c2cc(N3CCNCC3)c(F)cc2c1=O [CIPROFLOXACIN] | 16 | 2 | 8 | – | – | – | – | – | – | – | – | – | – | Activity (Staphylococcus aureus [1]): Active |
| Cc1[nH]c(C(=O)Nc2ccc(-c3noc(=O)[nH]3)cc2NC2CCN(C(=O)OC(C)(C)C)CC2)c(Cl)c1Cl | 128 | 2 | 4 | 0.5 (≈ 0.907 µM) | > 64 | 6.92 | 0.063 (≈ 0.114 µM) | 64 | 98 | > 64 | 2 (≈ 3.63 µM) | – | – | Activity (Staphylococcus aureus [5]): Dose-Dependent Effect; MIC (Acinetobacter baumannii): > 64 µg/mL; MIC (Enterobacter cloacae): > 64 µg/mL; MIC (Klebsiella pneumoniae): > 64 µg/mL; MIC (Staphylococcus aureus [7]): < 0.031 µg/mL; IC50 [8]: 1680 nM; Activity (Staphylococcus aureus [9]): Active; MIC (Enterococcus faecalis): < 0.031 µg/mL |
| Cc1[nH]c(C(=O)Nc2ccc(-n3nn[nH]c3=O)cc2N2CCC(NC(=O)OC(C)(C)C)CC2)c(Cl)c1Cl | – | – | – | – | – | 33 | – | – | 34 | – | – | 63 | – | Activity [13]: 65% |
| Cc1nnc(-c2ccc(NC(=O)c3[nH]c(C)c(Cl)c3Cl)c(OC(C)C)c2)o1 | – | – | – | – | > 64 | – | – | – | – | > 64 | > 64 | – | 115 | Activity [15]: 95% |
| Cc1[nH]c(C(=O)Nc2ccc(-c3nnn[nH]3)cc2N2CCCC(CNC(=O)OC(C)(C)C)C2)c(Cl)c1Cl (stereo not drawn) | – | – | – | – | – | 280 | – | – | – | – | – | – | – | Activity [17]: 95% |
| Cc1[nH]c(C(=O)Nc2ccc(-c3noc(=O)[nH]3)cc2N2CCOCC2)c(Cl)c1Cl | – | – | – | 2 (≈ 4.56 µM) | > 32 | 13 | 0.5 (≈ 1.14 µM) | 101 | – | > 32 | 4 (≈ 9.13 µM) | 76 | 119 | – |

Source: ChEMBL document CHEMBL6071157, “Improved N-phenylpyrrolamide inhibitors of DNA gyrase as antibacterial agents for high-priority bacterial strains” (Eur J Med Chem, 2024)
